≈ marks a conversion by molar mass, not a printed value. Where “and” joins values, the source holds several entries; their conditions need not be identical. Equal entries are not always repeated. Where two headings read alike, the source gives them in different places.
What was measured:
E. faecium 700221 (VRE) = assay: MIC assay with Tiron or metal(II) cation co-treatment; type: cell-based, Enterococcus faecium
E. coli UAEC-1 = assay: MIC assay (broth microdilution, CLSI); type: cell-based; settings: Escherichia coli, UAEC1; read-out: E. coli UAEC-1 MIC
[1] = system: MRSA BAA-1707 planktonic cells and biofilms; assay: Calgary Biofilm Device (CBD) assay, MBC/MBEC; settings: Staphylococcus aureus, read-out: MRSA BAA-1707 MBC
[2] = system: methicillin-resistant S. aureus (MRSA) strains; assay: MIC assay, values summarised over MRSA strains; type: cell-based, Staphylococcus aureus
[3] = system: Staphylococcus epidermidis (ATCC 35984), MRSE; assay: MIC assay (broth microdilution, CLSI); type: cell-based; settings: Staphylococcus epidermidis
[4] = Spectrophotometric determination of dissociation constants (pKa); type: physicochemical; settings: UV-vis at varying pH, 1:1 water:methanol buffers
Method: Dissociation constants (pKa) for select analogues were determined by implementing UV-vis spectroscopy at varying pH values. Buffers were prepared using potassium phosphate monobasic (KH2PO4) and sodium phosphate dibasic (Na2HPO4) in a 1:1 solution of water:methanol to achieve a pH range of 3.78 to 10.94. Compounds were added from 10 mM stock solutions in dimethyl sulfoxide (12.5 μL) to 987.5 μL of each buffer to yield a final compound concentration of 125 μM. Full spectral scans were performed for each evaluated analogue at pH 3.78 and pH 10.94 from 300 to 800 nm to determine λmax values for the protonated phenol (HA; e.g., HP 2 below) and the deprotonated phenolate species (A^−; e.g., conjugate base of HP 2 below). The change in absorption at each determined λmax in relation to pH was then monitored in each buffer and then plotted as absorbance versus pH for each species. The pKa was first estimated by determining the pH of the point of intersection of the two linear curves as shown. The visual estimation was confirmed by plotting pH versus log [A^−/HA]. The resulting plot yielded a linear regression line with a Y-intercept corresponding to a calculated pKa value.

K. pneumoniae 13883 = assay: MIC assay (broth microdilution, CLSI); type: cell-based, Klebsiella pneumoniae; settings: Klebsiella pneumoniae, 13883; read-out: K. pneumoniae 13883 MIC
[5] = system: S. aureus clinical isolate SA 138; assay: MIC assay (broth microdilution, CLSI); settings: Staphylococcus aureus, read-out: MIC, SA 138
P. aeruginosa (PAO1) = assay: MIC assay (broth microdilution, CLSI); type: cell-based; settings: Pseudomonas aeruginosa, PAO1; read-out: PAO1 MIC
[6] = system: MRSA-2 planktonic cells and biofilms; assay: Calgary Biofilm Device (CBD) assay, MBC/MBEC; type: cell-based, Staphylococcus aureus; settings: for MBC: Staphylococcus aureus, MRSA
[7] = system: S. aureus clinical isolate SA 147; assay: MIC assay (broth microdilution, CLSI); settings: Staphylococcus aureus, read-out: MIC, SA 147
MRSE 35984 biofilms = assay: Live/Dead staining (fluorescence microscopy) of MRSE 35984 biofilms; type: cell-based, Staphylococcus epidermidis; settings: 24 h
Method: In addition to Calgary Biofilm Device experiments, we evaluated select HPs against staphylococcal biofilms in live/dead staining experiments. HP 14 was added to 24 hour old MRSE biofilms at 0.1, 1, and 10 μM and allowed to incubate at 37° C. for an additional 24 hours. Following this, images of the treated and untreated S. epidermidis biofilm were taken using fluorescence microscopy (FIG. 11).
A mid-log culture of MRSE […] was diluted 1:1,000-fold and 500 μL was transferred to each compartment of a 4 compartment CELLview dish (Greiner Bio-One 627871). The dish was then incubated for 24 hours at 37° C. After this time, the cultures were removed and the plate was washed with 0.9% saline. The dish was then treated with the compounds in fresh media at various concentrations. DMSO was used as our negative control in this assay. The dish was incubated with the compound for 24 hours at 37° C. After this time, the cultures were removed and the dish was washed with 0.9% saline for 2 minutes. Saline was then removed and 500 μL of the stain (Live/Dead BacLight Viability Kit, Invitrogen) were added for 15 minutes and left in the dark. After this time, the stain was removed and the dish was washed twice with 0.9% saline. Then the dish was fixed with 500 μL 4% paraformaldehyde in PBS for 30 minutes. Images of remaining MRSE biofilms were then taken with a fluorescence microscope. All data were analyzed using IMAGE J software.

[8] = system: S. aureus clinical isolate SA 156; assay: MIC assay (broth microdilution, CLSI); settings: Staphylococcus aureus, read-out: MIC, SA 156
[9] = system: MRSA biofilms (MRSA-2, BAA-1707, BAA-44); assay: Calgary Biofilm Device assay, values summarised over MRSA strains
MRSA BAA-44 = assay: MIC assay (broth microdilution, CLSI); settings: Staphylococcus aureus, read-out: MIC, MRSA BAA-44
[10] = system: MRSA-2 persister cells (stationary cultures); assay: microbe, parasite or virus in culture; settings: Staphylococcus aureus, 24 h, read-out: reduction of viable stationary MRSA-2 cells
[11] = system: Staphylococcus epidermidis (ATCC 12228); assay: MIC assay (broth microdilution, CLSI); type: cell-based; settings: Staphylococcus epidermidis, ATCC12228; Table 7; b lowest concentration tested; read-out: MIC, S. epidermidis 12228
[12] = system: MRSA-2 persister cells (stationary cultures); settings: 12.5 μM; reduction of viable cells over 24 h; listed as 214
[13] = system: S. aureus clinical isolate SA 129; assay: MIC assay (broth microdilution, CLSI); settings: Staphylococcus aureus, read-out: MIC, SA 129
[14] = Table 2B, read-out: MIC, Staphylococcus epidermidis (ATCC 35984)
[15] = Table 7, read-out: MIC, MRSE 35984
[16] = Table 5, a/b midpoint of 2-/4-fold range, read-out: MRSA-2 MBC
[17] = Table 8, a/b 2-/4-fold range in independent experiments, read-out: MRSA-2 MBC
[18] = viable biofilm cell count from CBD peg

For `Oc1ccc(I)c2nc3cc(Cl)c(Cl)cc3nc12` [Compound 12, 7,8-Dichloro-4-iodo-1-hydroxyphenazine], which MIC (E. faecium 700221 (VRE)) is on record?
The MIC was 3.13 µM.

And the MIC (E. faecium 700221 (VRE); Enterococcus faecium, VRE)?
Its MIC is 3.13 µM.

And the MIC (E. faecium 700221 (VRE); Enterococcus faecium, VRE, read-out: MIC with Tiron)?
The MIC was 3.13 µM.

What about the MIC (E. faecium 700221 (VRE); Enterococcus faecium, VRE, E. faecium 700221, 200 μM CuSO4, read-out: MIC with Cu^2+) of the same compound?
The MIC was 1.56 µM.

What about the MIC (E. faecium 700221 (VRE); read-out: MIC with Tiron) of the same compound?
The MIC was 3.13 µM.

And the MIC (E. coli UAEC-1)?
Its MIC is > 100 µM.

And the MBC [1]?
The MBC was 75 µM (≈ 29.3 µg/mL).

And the MIC ([2]; Staphylococcus aureus, MRSA, range over the MRSA strains/isolates tested, read-out: MIC against MRSA strains)?
Its MIC is 0.15 to 0.59 µM (≈ 0.0586 to 0.231 µg/mL).

And the MIC ([3]; Table 2A, read-out: MIC, Staphylococcus epidermidis (ATCC 35984))?
The MIC was 0.78 µM (≈ 0.305 µg/mL).

What about the MIC [3, 14] of the same compound?
Its MIC is 0.78 µM (≈ 0.305 µg/mL).

What about the MIC [3, 15] of the same compound?
Its MIC is 0.78 µM (≈ 0.305 µg/mL).

What about the pKa [4] of the same compound?
Its pKa is 7.70.

What about the MIC (K. pneumoniae 13883) of the same compound?
The MIC was > 100 µM.

What about the MIC [5] of the same compound?
The MIC was 0.59 µM (≈ 0.231 µg/mL).

And the MIC (P. aeruginosa (PAO1))?
Its MIC is > 100 µM.

What about the MBC ([6]; Table 4, read-out: MBC, MRSA-2) of the same compound?
The MBC was 25 µM (≈ 9.77 µg/mL).

And the MBC [6, 16]?
Its MBC is 25 µM (≈ 9.77 µg/mL).

What about the MBC [6, 17] of the same compound?
The MBC was 25 µM (≈ 9.77 µg/mL).

Which results are given for `Oc1c(Br)cc(I)c2nc3cc(Cl)c(Cl)cc3nc12` [Compound 14, 2-bromo-7,8-dichloro-4-iodo-1-hydroxyphenazine]?
MIC [7]: 0.3 µM (≈ 0.141 µg/mL); effect on established MRSE biofilm (Live/Dead staining) (MRSE 35984 biofilms; 0.1 μM): a significant amount of MRSE biofilm cells were eradicated, however, not cleared from within the biofilm; effect on established MRSE biofilm (Live/Dead staining) (MRSE 35984 biofilms; 1 μM): a significant amount of the biofilm cells; effect on established MRSE biofilm (Live/Dead staining) (MRSE 35984 biofilms; 10 μM): removed all detectable MRSE biofilm cells from the glass surface; growth inhibition activity against at least one MRSA strain [2]: sub-micromolar; MIC [8]: 0.3 µM (≈ 0.141 µg/mL); MIC [3, 14]: 3.13 µM (≈ 1.47 µg/mL); MIC [3, 15]: 3.13 µM (≈ 1.47 µg/mL); pKa [4]: 6.95; MBEC against MRSA biofilms [9]: < 10 µM and 6.25 to 9.38 µM; MIC (MRSA BAA-44): 3.13 µM (≈ 1.47 µg/mL); MIC [5]: 0.59 µM (≈ 0.277 µg/mL); inhibition at 12.5 µM [10]: > 99.9%; MIC [11]: 0.1 µM (≈ 0.047 µg/mL); MRSA-2 stationary killing [12]: >3 log; MBC [6, 16]: 3.13 µM (≈ 1.47 µg/mL); MBC [6, 17]: 3.13 µM (≈ 1.47 µg/mL); persister cells eradicated within MRSA biofilms at the MBEC [6, 18]: > 99.9%; persister cells eradicated within MRSA-2 biofilms at the MBEC [6, 18]: > 3 log; MIC [13]: 1.56 µM (≈ 0.733 µg/mL)

Source: patent US20180312473A1, “PHENAZINE DERIVATIVES AS ANTIMICROBIAL AGENTS” (priority 2015, published 2018)
